Measurements published in the supplement of paper PMC10307832.

Experiments:
Assay in all cases: relative viability (nuclei count vs DMSO), 5 days (fraction); higher = more cells survive
[1] = tested on: A-427
In short: (§1)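 After 5 days of treatment, lung cancer cells in 1536-well plates were fixed and stained in a single step (final 0.05% Triton X-100, 1% formaldehyde, 1 ug/ml Hoechst) and their nuclei counted on 4× images. Treatment had been applied by pin tool the day after seeding as one drug alone or as a fixed anchor-drug dose with five library-drug doses (not always all listed) in √10 steps. Relative viability is the nuclei count of treated wells divided by that of vehicle wells, and values are medians of duplicate plates.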

[2] = tested on: BEN
In short: as §1

[3] = tested on: HARA
In short: as §1

[4] = tested on: LCLC-97TM1
In short: as §1

[5] = tested on: LOU-NH91
In short: as §1

[6] = tested on: LU99A
In short: as §1

[7] = tested on: LXF-289
In short: as §1

[8] = tested on: NCI-H1395
In short: as §1

[9] = tested on: NCI-H1666
In short: as §1

[10] = tested on: NCI-H1755
In short: as §1

[11] = tested on: NCI-H1793
In short: as §1

[12] = tested on: NCI-H1915
In short: as §1

Compound: O=C(O)CCCCC(CCSCc1ccccc1)SCc1ccccc1 (configuration not stated) [CPI-613] + Cc1nc(NC(=O)N2CCC[C@H]2C(N)=O)sc1-c1ccnc(C(C)(C)C(F)(F)F)c1 [Alpelisib] (partner 2 µM)
- relative viability ([1]; first compound 5 µM): 1.02
- relative viability ([1]; first compound 15.81 µM): 1.06
- relative viability ([1]; first compound 50 µM): 1.01
- relative viability ([1]; first compound 158.11 µM): 0.985
- relative viability ([1]; first compound 500 µM): 0.857
- relative viability ([2]; first compound 5 µM): 0.929
- relative viability ([2]; first compound 15.81 µM): 0.949
- relative viability ([2]; first compound 50 µM): 0.969
- relative viability ([2]; first compound 158.11 µM): 0.831
- relative viability ([2]; first compound 500 µM): 0.858
- relative viability ([3]; first compound 5 µM): 0.856
- relative viability ([3]; first compound 15.81 µM): 0.681
- relative viability ([3]; first compound 50 µM): 0.942
- relative viability ([3]; first compound 158.11 µM): 0.401
- relative viability ([3]; first compound 500 µM): 0.0463
- relative viability ([4]; first compound 5 µM): 0.216
- relative viability ([4]; first compound 15.81 µM): 0.254
- relative viability ([4]; first compound 50 µM): 0.311
- relative viability ([4]; first compound 158.11 µM): 0.139
- relative viability ([4]; first compound 500 µM): 0.0641
- relative viability ([5]; first compound 5 µM): 0.73
- relative viability ([5]; first compound 15.81 µM): 0.679
- relative viability ([5]; first compound 50 µM): 0.743
- relative viability ([5]; first compound 158.11 µM): 0.728
- relative viability ([5]; first compound 500 µM): 0.718
- relative viability ([6]; first compound 5 µM): 0.535
- relative viability ([6]; first compound 15.81 µM): 0.51
- relative viability ([6]; first compound 50 µM): 0.461
- relative viability ([6]; first compound 158.11 µM): 0.227
- relative viability ([6]; first compound 500 µM): 0.0551
- relative viability ([7]; first compound 5 µM): 1.02
- relative viability ([7]; first compound 15.81 µM): 0.961
- relative viability ([7]; first compound 50 µM): 0.988
- relative viability ([7]; first compound 158.11 µM): 0.318
- relative viability ([7]; first compound 500 µM): 0.0306
- relative viability ([8]; first compound 5 µM): 0.988
- relative viability ([8]; first compound 15.81 µM): 1.08
- relative viability ([8]; first compound 50 µM): 1.27
- relative viability ([8]; first compound 158.11 µM): 0.99
- relative viability ([8]; first compound 500 µM): 0.75
- relative viability ([9]; first compound 5 µM): 0.935
- relative viability ([9]; first compound 15.81 µM): 0.896
- relative viability ([9]; first compound 50 µM): 1.27
- relative viability ([9]; first compound 158.11 µM): 0.158
- relative viability ([9]; first compound 500 µM): 0.138
- relative viability ([10]; first compound 5 µM): 0.91
- relative viability ([10]; first compound 15.81 µM): 0.89
- relative viability ([10]; first compound 50 µM): 0.837
- relative viability ([10]; first compound 158.11 µM): 0.769
- relative viability ([10]; first compound 500 µM): 0.251
- relative viability ([11]; first compound 5 µM): 0.671
- relative viability ([11]; first compound 50 µM): 0.66
- relative viability ([11]; first compound 158.11 µM): 0.273
- relative viability ([11]; first compound 500 µM): 0.109
- relative viability ([12]; first compound 5 µM): 1.12
- relative viability ([12]; first compound 15.81 µM): 1.04
- relative viability ([12]; first compound 50 µM): 1.01
